Data as given in article PMC8313326, “Phytochemical Analysis and Evaluation of Biological Activity of Lawsonia inermis Seeds Related to Alzheimer's Disease” (Evidence-based Complementary and Alternative Medicine : eCAM, 2021).
Like-named read-outs stand apart in the source and are kept apart here.

Tests used:
[1] = Antioxidant activity by DPPH test; details: 30 min, room temperature, dark, 517 nm
Experimental: Several concentrations of the test fraction in MeOH were prepared. Aliquots of different concentrations of the fraction (1 mL) were added to the DPPH methanolic solution (1.0 mL, 0.1 mM), and the mixtures were shaken vigorously and left for 30 min at room temperature in the dark.
In the same procedure, butylated hydroxyanisole (BHA) was used as the positive control. The DPPH radical scavenging activity of the fractions was expressed as IC50 (μg/mL), which is obtained from linear regression plot between concentrations of the test fractions and percent inhibitions.

[2] = molecular target: T1, butyrylcholinesterase (BChE, E.C. 3.1.1.8) (Equus caballus, UniProt P81908); assay: biochemical
T1 construct: butyrylcholinesterase (BChE, E.C. 3.1.1.8, from equine serum); purchased Sigma-Aldrich; host or cells: equine serum
T1 sequence (P81908 whole entry): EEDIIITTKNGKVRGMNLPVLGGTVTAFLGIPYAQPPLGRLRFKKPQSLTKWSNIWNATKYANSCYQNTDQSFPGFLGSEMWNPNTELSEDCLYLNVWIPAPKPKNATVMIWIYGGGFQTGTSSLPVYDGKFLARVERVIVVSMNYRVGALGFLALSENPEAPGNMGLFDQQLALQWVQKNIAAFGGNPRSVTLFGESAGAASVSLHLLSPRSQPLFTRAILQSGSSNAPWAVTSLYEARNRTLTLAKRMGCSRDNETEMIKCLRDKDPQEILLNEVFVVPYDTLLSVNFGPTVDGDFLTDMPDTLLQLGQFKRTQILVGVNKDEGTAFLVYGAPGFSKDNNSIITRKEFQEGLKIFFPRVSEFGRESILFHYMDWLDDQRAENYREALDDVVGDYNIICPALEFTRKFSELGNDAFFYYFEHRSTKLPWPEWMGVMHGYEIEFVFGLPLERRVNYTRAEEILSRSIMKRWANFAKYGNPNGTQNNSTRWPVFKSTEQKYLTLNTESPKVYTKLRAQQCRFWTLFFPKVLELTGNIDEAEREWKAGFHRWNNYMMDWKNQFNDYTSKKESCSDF
From the text: (§1) Acetylcholinesterase (AChE, E.C. 3.1.1.7, Type V-S, lyophilized powder, from electric eel, 1000 units), butyrylcholinesterase (BChE, E.C. 3.1.1.8, from equine serum), acetylthiocholine iodide (ATCI), and 5,5-dithiobis-2-nitrobenzoic acid (DTNB) were purchased from Sigma-Aldrich. Potassium dihydrogen phosphate, dipotassium hydrogen phosphate, potassium hydroxide, and sodium hydrogen carbonate were obtained from Fluka. Solvents for the extraction and column chromatography (CC) were of technical grade and redistilled before use. Deuterated solvents (100 atom % D) were obtained from Sigma-Aldrich.
(§2) In vitro anti-ChEI activity was performed against acetylcholinesterase (AChE, E.C. 3.1.1.7, Type V-S, lyophilized powder, from electric eel, 1000 units) and butyrylcholinesterase (BChE, E.C. 3.1.1.8, from equine serum) using the modified Ellman's method. […] Each well consisted of 50 μL potassium phosphate buffer (KH2PO4/K2HPO4, 0.1 M, pH 8), 25 μL prepared sample as described above, and AChE enzyme (25 μL) with a final concentration of 0.22 units/mL in the buffer. They were preincubated for 15 min at room temperature, and then, 125 μL DTNB (3 mM in buffer) was added to the mixture. […] In parallel, a blank containing all components without enzyme was used in order to account for the nonenzymatic reaction. […] The IC50 values were determined graphically from log concentration vs. % of inhibition curves. All experiments were performed in triplicate. BChE inhibition assay was performed in the same method.

[3] = molecular target: T2, acetylcholinesterase (AChE, E.C. 3.1.1.7, Type V-S) (Electrophorus electricus, UniProt O42275); assay: biochemical
T2 construct: Type V-S, lyophilized powder, from electric eel; purchased Sigma-Aldrich; host or cells: electric eel
T2 sequence (O42275 24-633): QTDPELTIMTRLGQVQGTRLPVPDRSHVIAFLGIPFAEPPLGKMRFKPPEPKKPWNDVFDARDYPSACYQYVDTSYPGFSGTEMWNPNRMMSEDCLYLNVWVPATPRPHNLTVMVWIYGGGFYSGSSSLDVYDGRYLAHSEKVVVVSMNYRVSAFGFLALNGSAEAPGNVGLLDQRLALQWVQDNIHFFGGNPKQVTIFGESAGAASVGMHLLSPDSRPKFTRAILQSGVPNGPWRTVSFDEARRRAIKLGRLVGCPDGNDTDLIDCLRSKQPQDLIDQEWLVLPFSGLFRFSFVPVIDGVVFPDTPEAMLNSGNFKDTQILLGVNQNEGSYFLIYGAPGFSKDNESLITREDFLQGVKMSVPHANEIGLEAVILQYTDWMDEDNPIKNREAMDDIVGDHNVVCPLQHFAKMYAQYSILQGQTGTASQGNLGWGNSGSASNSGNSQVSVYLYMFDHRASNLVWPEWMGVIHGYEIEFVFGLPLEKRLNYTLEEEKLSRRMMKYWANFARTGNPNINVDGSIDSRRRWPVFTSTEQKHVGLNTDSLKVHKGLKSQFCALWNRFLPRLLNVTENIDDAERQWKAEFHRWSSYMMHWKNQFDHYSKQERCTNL
From the text: as §1, §2

[4] = system: acetylcholinesterase; details: cited from earlier work
[5] = system: BChE; set-up: method as in PMID 24354178; details: cited from earlier work

## COc1ccc(O)c(C(C)(C)C)c1 [BHA, butylated hydroxyanisole]
[1]
  DPPH free radical scavenging IC50: 3.79 ± 0.37 µg/mL

## CC[C@H](CC[C@@H](C)[C@H]1CC[C@H]2[C@@H]3CC=C4C[C@@H](O)CC[C@]4(C)[C@H]3CC[C@]12C)C(C)C [compound 1, β-Sitosterol]
[2]
  IC50: > 100 µM
[3]
  IC50: > 100 µM

## CC(=O)O[C@H]1CC[C@@]2(C)C(CC[C@]3(C)C2CC=C2C4CC(C)(C)CC[C@]4(C(=O)O)CC[C@]23C)C1(C)C (stereo partly drawn) [compound 2, 3-O-β-Acetyloleanolic acid]
[2]
  IC50: 77.13 ± 0.01 µM
[3]
  IC50: > 100 µM

## CC1(C)CC[C@]2(C(=O)O)CC[C@]3(C)C(=CCC4[C@@]5(C)CC[C@H](OC(=O)/C=C/c6ccc(O)cc6)C(C)(C)C5CC[C@]43C)C2C1 (stereo partly drawn) [compound 3, 3-O-(Z)-Coumaroyl oleanolic acid]
[2]; isolated compounds, mean ± SD, three independent experiments, read-out: BChE IC50
  IC50: > 100 µM
[3]; isolated compounds, mean ± SD, three independent experiments, read-out: AChE IC50
  IC50: > 100 µM

## C=C(C)[C@@H]1CC[C@]2(C(=O)O)CC[C@]3(C)[C@H](CC[C@@H]4[C@@]5(C)CC[C@H](O)C(C)(C)[C@@H]5CC[C@]43C)[C@@H]12 [compound 4, Betulinic acid]
[2]
  IC50: > 100 µM
[3]
  IC50: > 100 µM

## CC1(C)CC[C@]2(C(=O)O)CC[C@]3(C)C(=CC[C@@H]4[C@@]5(C)CC[C@H](O)C(C)(C)[C@@H]5CC[C@]43C)[C@@H]2C1 [compound 5, Oleanolic acid]
[2]; BChE IC50, isolated compounds, mean ± SD, three independent experiments
  IC50: 72.2 ± 0.42 µM

## COc1ccc2c3c1O[C@H]1C[C@@H](O)C=C[C@@]31CCN(C)C2 [galantamine]
[4]
  inhibitory activity against acetylcholinesterase: significant inhibitory activity

## COc1ccc(C(C)=O)c(O)c1 [paeonol]
[5]
  BChE inhibitory activity: selective BChE inhibitory activity

## CNC(=O)Oc1ccc2c(c1)[C@]1(C)CCN(C)[C@@H]1N2C [physostigmine]
[4]
  inhibitory activity against acetylcholinesterase: significant inhibitory activity

## CN1CC[C@@]23C=C[C@H](O)C[C@@H]2Oc2c(O)ccc(c23)C1 [sanguinine]
[4]
  inhibitory activity against acetylcholinesterase: significant inhibitory activity

## hydroperoxy-24-vinylcholesterol
[5]
  BChE inhibitory activity: selective BChE inhibitory activity
